Assay: molar heat capacity at constant pressure
Details: 101.33 kPa, Vacuum adiabatic calorimetry

CCCCCCCCCCCCCCCCCC(=O)OCC(COC(=O)CCCCCCCCCCCCCCCCC)OC(=O)CCCCCCCCCCCCCCCCC [glycerol trioctadecanoate]
Details	molar heat capacity at constant pressure [J/K/mol]
214.62 K, Metastable crystal	1110.8
215.88 K, Crystal	1037.7
217.06 K, Metastable crystal	1127.7
218.8 K, Crystal	1044.8
219.48 K, Metastable crystal	1147.3
221.72 K, Crystal	1048.4
221.9 K, Metastable crystal	1157.1
224.3 K, Metastable crystal	1170.5
224.64 K, Crystal	1057.3
226.69 K, Metastable crystal	1185.7
227.55 K, Crystal	1067.1
229.06 K, Metastable crystal	1200.8
230.47 K, Crystal	1080.5
231.43 K, Metastable crystal	1217.8
233.39 K, Crystal	1094.7
233.79 K, Metastable crystal	1238.3
236.13 K, Metastable crystal	1256.1
236.3 K, Crystal	1107.2
238.46 K, Metastable crystal	1271.3
239.22 K, Crystal	1121.5
240.79 K, Metastable crystal	1288.2
242.14 K, Crystal	1134
243.1 K, Metastable crystal	1307.8
245.06 K, Crystal	1149.1
245.41 K, Metastable crystal	1327.4
247.71 K, Metastable crystal	1339.9
247.98 K, Crystal	1165.2
250 K, Metastable crystal	1358.6
250.9 K, Crystal	1177.6
252.28 K, Metastable crystal	1376.4
253.82 K, Crystal	1192.8
254.56 K, Metastable crystal	1397.8
256.74 K, Crystal	1208
256.83 K, Metastable crystal	1413
259.09 K, Metastable crystal	1426.4
259.67 K, Crystal	1222.2
261.34 K, Metastable crystal	1444.2
262.6 K, Crystal	1238.3
263.59 K, Metastable crystal	1461.1
265.53 K, Crystal	1254.3
265.83 K, Metastable crystal	1479
268.07 K, Metastable crystal	1495
268.46 K, Crystal	1271.3
270.3 K, Metastable crystal	1515.5
271.39 K, Crystal	1285.5
272.53 K, Metastable crystal	1532.5
274.33 K, Crystal	1301.6
274.75 K, Metastable crystal	1553
276.96 K, Metastable crystal	1577.9
277.27 K, Crystal	1327.4
279.18 K, Metastable crystal	1590.4
280.21 K, Crystal	1339
281.39 K, Metastable crystal	1610
283.16 K, Crystal	1355
283.59 K, Metastable crystal	1629.6
285.8 K, Metastable crystal	1647.5
286.11 K, Crystal	1371.1
288 K, Metastable crystal	1670.6
289.07 K, Crystal	1387.1
290.2 K, Metastable crystal	1689.4
292.03 K, Crystal	1412.1
292.39 K, Metastable crystal	1716.1
294.59 K, Metastable crystal	1733
294.99 K, Crystal	1428.2
296.78 K, Metastable crystal	1763.3
297.32 K, Crystal	1434.4
297.96 K, Crystal	1448.7
298.4 K, Crystal	1436.2
298.97 K, Metastable crystal	1787.4
299.84 K, Crystal	1454.9
300.94 K, Crystal	1466.5
301.16 K, Metastable crystal	1815.9
301.82 K, Crystal	1473.6
303.79 K, Crystal	1492.3
304.05 K, Crystal	1488.8
305.75 K, Crystal	1508.4
306.72 K, Crystal	1514.6
307.7 K, Crystal	1523.5
308.94 K, Crystal	1529.8
309.65 K, Crystal	1536
311.17 K, Crystal	1544
311.6 K, Crystal	1552.1
313.39 K, Crystal	1561
313.55 K, Crystal	1569.9
315.49 K, Crystal	1579.7
315.61 K, Crystal	1576.1
317.43 K, Crystal	1598.4
317.83 K, Crystal	1598.4
319.37 K, Crystal	1627.8
320.05 K, Crystal	1624.3
321.32 K, Crystal	1642.1
322.28 K, Crystal	1645.7
323.27 K, Crystal	1659.9
324.5 K, Crystal	1666.2
325.23 K, Crystal	1682.2
326.72 K, Crystal	1692.9
327.2 K, Crystal	1700.1
328.95 K, Crystal	1713.4
329.17 K, Crystal	1721.4
351.37 K, Liquid	1971.1
353.63 K, Liquid	1975.5
355.89 K, Liquid	1981.8
358.16 K, Liquid	1986.2
360.45 K, Liquid	1992.5
362.74 K, Liquid	1997.8
365.05 K, Liquid	2004.9
367.37 K, Liquid	2007.6
369.71 K, Liquid	2015.6
